Measured values: patent publication US11547685B2, “Using probenecid to treat polycystic kidney disease” (Mayo Foundation for Medical Education and Research, priority 2017, dated 2023)
Where “and” joins values, the source holds several entries; their conditions need not be identical. Equal values may be shown once. Entries after “also recorded” stand apart in the source; their conditions may differ.

Legend:
[1] = tested on: Pkd1^RC/RC PKD mouse model; experiment: PKD mouse model Pkd1RC/RC, kidney weight/body weight; format: in vivo; conditions: Pkd1^RC/RC mice, 0.03 mg in 100 mg of chow, treated from age 4 weeks to 12 weeks
Experimental: The PKD mouse model, Pkd1^RC/RC, was used in this experiment. Probenecid (0.03 mg in 100 mg of chow), tolvaptan (0.03 mg in 100 mg of chow), or the combination of tolvaptan and probenecid were mixed with the food. […] The treatment started from age 4 weeks to 12 weeks. Mice were sacrificed, and the kidney weight (KW) was measured then standardized to body weight (BW). KW/BW ratio was an established method to report an effect of therapy in ADPKD mouse models.

mIMCD3 cells [2] = experiment: Three dimensional (3D) cystogenesis assay, forskolin-induced; format: cell-based, mouse; conditions: for reduction in cyst size: 5 days
Experimental: FIG. 2. Probenecid reduces forskolin-induced cystogenesis. mIMCD3 cells were grown in 3D matrigel-based extracellular matrix system and incubated with defined medium (control)+/−forskolin (10 μM) and probenecid (500 μM and 1000 μM) for 5 days. Cysts were imaged using an inverted phase microscope, and cyst size was quantified by measuring cyst diameter using Image J software and reported as cyst surface area (μm^2). Forskolin induced cystogenesis in wild type. […] FIG. 3. Probenecid reduces forskolin induced in vitro cystogenesis. As described in FIG. 3, cells were grown in matrigel based system for 5 days. All four groups shown were stimulated with 10 μM of forskolin. Different doses of probenecid were compared. A dose effect was seen as higher dose of probenecid were more efficacious in reducing cyst growth when stimulated with forskolin. […] 3D matrix was prepared by mixing 1:1 matrigel with defined medium (DMEM, 25 μg/L EGF, 5 μg/mL insulin, 5 μg/mL transferrin, 5 ng/mL selenium, penicillin, streptomycin, 5×10^−12 M triiodothyronine, and 5×10^−8 M hydrocortisone). Cells were mixed with the extracellular matrix and grown in 96-wells plate (8000-10000 cells per well). The desired drug concentration (forskolin 10 μM, probenecid 500-1000 μM) was added to the medium and changed on a daily basis. Images of the wells were taken daily by an inverted phase contrast microscope. Images from day 5 were analyzed using Image J software. Cyst surface was calculated using cyst diameter. mIMCD3 cells were grown in three dimensional matrix-based extracellular matrix. When stimulated with forskolin, these cells grew to form multiple cysts. […] The cyst reduction may be due to inhibition of cell proliferation, inhibition of chloride driven fluid secretion, or both.

mIMCD3 cells [3] = experiment: Proliferation assay (Incucyte confluence); format: cell-based, mouse; conditions: 7 days
Experimental: FIG. 5. Probenecid inhibits proliferation in mICMD3 cells. mIMCD3 cells were grown in 96 wells plate (2500 […]) for 7 days and imaged every 4 hours in an incubator-based imaging system (Incucyte). Confluence was measured at each time point. Cells were treated with defined medium (control), forskolin (FSK) 10 μM, or probenecid (PB) 500 μM and 1000 μM. Control and forskolin (FSK 10 μM) groups reached confluence faster when compared to probenecid alone or probenecid with forskolin. […] Cells were seeded in 96 wells plate (2500 cells/well) and grown for 7 days. Images were taken by an incubator-based microscope (Incucyte) every 4 hours and analyzed for confluence. Probenecid inhibited proliferation in a dose dependent manner. Cells were grown and imaged for 7 days in an incubator-based imaging system (IncuCyte) and analyzed for confluence.

embryonic kidneys = experiment: Forskolin-induced cystogenesis in cultured embryonic kidneys; conditions: E13.5 kidneys, forskolin-stimulated, probenecid 500 μM, day 5
Experimental: FIG. 6 contains photographs showing that probenecid (500 μM) dramatically reduces cystogenesis in embryonic kidneys. Embryonic kidneys were harvested at E13.5 (embryos were 13-14 days old in utero). These kidneys were harvested and cultured on filters and stimulated with forskolin to induce cysts.

mIMCD3 cells [4] = experiment: Time-lapse imaging of cytoplasmic calcium with Gcamp6s biosensor; format: cell-based, mouse; conditions: probenecid 1000 μM, mIMCD3 cells stably transfected with Gcamps6s
Experimental: FIG. 1B. Probenecid increases intracytoplasmic calcium in mouse inner medullary collecting duct cells (mIMCD3). mIMCD3 cells were stably transfected with […] (cytoplasmic calcium genetically encoded biosensor) and grown on 35 mm glass bottom dish for at least 5 days post confluence then imaged under confocal microscopy every 3 seconds. Probenecid (1000 μM) was added to the medium at 10.5 minutes as noted by the blue bar. Fluorescence changes of a region of interest (ROI) in each cell are analyzed in Zen software and reported as a ratio of fluorescence over baseline fluorescence of each ROI (F/F0). An increase in F/F0 indicates relative increase in cytoplasmic calcium. Probenecid increased cytoplasmic calcium by 4-6 folds compared to baseline calcium. Two representative images at baseline and at peak increase of cytoplasmic calcium are shown. Mouse inner medullary collecting duct immortalized cell lines were used (mIMCD3): wild type (WT) or with a knockout of Pkd1 (Pkd^1-/-) or Pkd2 (Pkd^2-/-). WT cells were transfected with GCamp6s by electroporation (Bio Rad Gene pulser Xcell). […] Time lapses (every 3 seconds) were captured on Zeiss confocal microscope (LSM-780) and analyzed on Zeiss Zen Pro software. […] Fluorescence changes of a region of interest (ROI) in each cell were analyzed in Zen software and reported as a ratio of fluorescence over baseline fluorescence of each ROI (F/F0). […]

mIMCD3 cells [5] = experiment: cAMP ELISA assay; format: cell-based, mouse
Experimental: FIG. 4. Probenecid enhances the intracellular accumulation of cAMP generated in response to forskolin. Wild type mIMCD3 cells were grown in 6 wells plate to confluence for at least 5 days then treated with either forskolin (10 μM) alone, probenecid alone (500 μM; PB 500), or forskolin (FSK) with probenecid (100 μM, PB100; 250 μM, PB250; and 500 μM, PB500). cAMP was measured by ELISA assay (pmol/mg of protein). […] Cells were grown in 6-wells culture dishes and incubated for at least 5 days post confluence. Cells were collected then homogenized in 0.1 M HCl. The protein concentration was measured by using BCA Protein Assay Kit. After centrifugation, the supernatant was further diluted in 0.1 M HCl. cAMP content was assessed by enzyme-linked immunosorbent assay. The results were expressed in picomoles per milligram of protein. Probenecid inhibited MRP1 mediated efflux of cAMP.

## Cc1ccccc1C(=O)Nc1ccc(C(=O)N2CCCC(O)c3cc(Cl)ccc32)c(C)c1 (stereo not drawn) [tolvaptan]
[1]
  mean KW/BW ratio: 2.07% (±0.42)

## CCCN(CCC)S(=O)(=O)c1ccc(C(=O)O)cc1 [probenecid, 4-(dipropyl-sulfamoyl) benzoic acid]
[1]
  mean KW/BW ratio: 2.56% (±0.42)
mIMCD3 cells [2]; probenecid 500 μM with forskolin 10 μM
  reduction in cyst size: 68.4%
mIMCD3 cells [2]; probenecid 1000 μM with forskolin 10 μM
  reduction in cyst size: 82.6%
mIMCD3 cells [2]; summary statement
  reduction of cystic burden in 3D in vitro cystogenesis assay: more than 80%
mIMCD3 cells [2]; without forskolin
  cystogenesis with probenecid alone: did not induce any cystogenesis
mIMCD3 cells [3]; Pkd2 null mIMCD3, probenecid 1000 μM alone
  proliferation (confluence): most completely inhibited proliferation
mIMCD3 cells [3]; wild type mIMCD3, probenecid 500 and 1000 μM
  proliferation (confluence): significantly inhibited proliferation
Embryonic kidneys
  cyst formation in embryonic kidney culture: significantly inhibited; also recorded: almost completely prevents cyst formation
mIMCD3 cells [4]
  increase in cytoplasmic calcium (F/F0) compared to baseline calcium: 4-6 fold and 4- to 6 fold
mIMCD3 cells [5]; wild type mIMCD3, forskolin 10 μM plus probenecid 100, 250, 500 μM
  intracellular cAMP, probenecid combined with forskolin versus forskolin alone: increased cAMP levels in a dose dependent fashion
mIMCD3 cells [5]; wild type mIMCD3, probenecid 500 μM, no forskolin
  intracellular cAMP, probenecid alone: did not increase cAMP
